Assay results: patent US20240336608A1, “IL4I1 INHIBITORS AND METHODS OF USE” (Merck Sharp & Dohme LLC, priority 2023, published 2024)

Target: T1, recombinant IL4I1 (Homo sapiens, UniProt Q96RQ9)
T1 construct: purchased R&D Systems 5684-AO-020
T1 sequence (Q96RQ9 22-567): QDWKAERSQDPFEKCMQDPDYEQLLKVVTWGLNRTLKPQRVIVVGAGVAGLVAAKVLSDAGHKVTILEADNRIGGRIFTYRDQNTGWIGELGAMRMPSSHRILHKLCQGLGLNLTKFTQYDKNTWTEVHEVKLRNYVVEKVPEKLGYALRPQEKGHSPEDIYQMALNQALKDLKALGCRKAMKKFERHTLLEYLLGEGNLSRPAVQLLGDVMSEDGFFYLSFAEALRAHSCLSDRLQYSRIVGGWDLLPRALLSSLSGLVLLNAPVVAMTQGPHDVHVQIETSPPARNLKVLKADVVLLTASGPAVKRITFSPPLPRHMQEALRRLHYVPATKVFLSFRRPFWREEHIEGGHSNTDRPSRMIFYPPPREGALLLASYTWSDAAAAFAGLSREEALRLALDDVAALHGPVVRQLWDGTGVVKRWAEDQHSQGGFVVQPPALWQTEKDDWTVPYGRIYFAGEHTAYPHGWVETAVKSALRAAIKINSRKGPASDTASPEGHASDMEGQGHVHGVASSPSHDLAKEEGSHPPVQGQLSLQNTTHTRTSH
Assay: IL4I1 Enzymatic Assay (Amplex Red/HRP coupled detection of H2O2, fluorescence)
Type: biochemical
Conditions: 1 nM recombinant IL4I1; four-hour pre-incubation with compound; 1 mM each Phe, Tyr, Trp; ten-point titration
How it was run: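 H2O2 output was coupled to resorufin fluorescence (ex 544/em 590) via 0.05 mM Amplex Red and 1 U/mL HRP. Substrate: Phe, Tyr, Trp at 1 mM each; enzyme 1 nM, 4 h compound pre-incubation, 120 min reaction, pH 7.0 Hepes. EC50 by nonlinear four-parameter regression, 1:3 ten-point titration.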

| Structure (SMILES) | EC50 |
| --- | --- |
| C[C@@H](O)[C@H](CO)n1cc(C(=O)NCc2nnc(-c3ccccc3)s2)nn1 [Example 187, 1-((2S,3R)-1,3-dihydroxybutan-2-yl)-N-((5-phenyl-1,3,4-thiadiazol-2-yl)methyl)-1H-1,2,3-triazole-4-carboxamide] | 196 nM |
| O=C(NCc1nnc(-c2ccccc2)s1)c1c[nH]nc1C(F)(F)F [Example 44, N-[(5-phenyl-1,3,4-thiadiazol-2-yl)methyl]-3-(trifluoromethyl)-1H-pyrazole-4-carboxamide] | 770 nM |
| CC(C)(O)c1cc(C(=O)NCc2ccc(-c3ccccc3)nn2)on1 [Example 254, 3-(2-hydroxypropan-2-yl)-N-((6-phenylpyridazin-3-yl)methyl)isoxazole-5-carboxamide] | 995 nM |
| Cc1n[nH]c(C)c1-n1cc(C(=O)NCc2nnc(-c3ccccc3)s2)nn1 [Example 346, 1-(3,5-dimethyl-1H-pyrazol-4-yl)-N-((5-phenyl-1,3,4-thiadiazol-2-yl)methyl)-1H-1,2,3-triazole-4-carboxamide] | 108 nM |
| Cc1nonc1C(=O)NCc1nnc(-c2ccccc2)s1 [Example 55, 4-methyl-N-[(5-phenyl-1,3,4-thiadiazol-2-yl)methyl]-1,2,5-oxadiazole-3-carboxamide] | 276 nM |
| CCc1[nH]nc(C(=O)NCc2nnc(-c3ccccc3)s2)c1C [Example 47, 5-ethyl-4-methyl-N-((5-phenyl-1,3,4-thiadiazol-2-yl)methyl)-1H-pyrazole-3-carboxamide] | 155 nM |
| O=C(NCc1nnc(-c2ccccc2)s1)c1cn([C@H]2CCOC[C@@H]2O)nn1 [Example 184, 1-((3R,4S)-3-hydroxytetrahydro-2H-pyran-4-yl)-N-((5-phenyl-1,3,4-thiadiazol-2-yl)methyl)-1H-1,2,3-triazole-4-carboxamide] | 77 nM |
| O=C(NCc1nnc(-c2ccccc2)s1)c1cn(C[C@H](F)CO)nn1 [Example 302, (S)-1-(2-fluoro-3-hydroxypropyl)-N-((5-phenyl-1,3,4-thiadiazol-2-yl)methyl)-1H-1,2,3-triazole-4-carboxamide] | 5 nM |
| CC(F)(F)Cn1cc(C(=O)NCc2nnc(-c3ccccc3)s2)nn1 [Example 211, 1-(2,2-difluoropropyl)-N-((5-phenyl-1,3,4-thiadiazol-2-yl)methyl)-1H-1,2,3-triazole-4-carboxamide] | 14 nM |
| O=C(NCc1nnc(-c2ccccc2)s1)c1cc2c(s1)CCC2 [Example 6, N-[(5-phenyl-1,3,4-thiadiazol-2-yl)methyl]-5,6-dihydro-4H-cyclopenta[b]thiophene-2-carboxamide] | 62 nM |
| C[C@@H](CO)Cn1cc(C(=O)NCc2nnc(-c3ccccc3)s2)nn1 [Example 75, (R)-1-(3-hydroxy-2-methylpropyl)-N-((5-phenyl-1,3,4-thiadiazol-2-yl)methyl)-1H-1,2,3-triazole-4-carboxamide] | 17 nM |
| C[C@@H](C1COC1)n1cc(C(=O)NCc2nnc(-c3ccccc3)s2)nn1 [Example 148, (S)-1-(1-(oxetan-3-yl)ethyl)-N-((5-phenyl-1,3,4-thiadiazol-2-yl)methyl)-1H-1,2,3-triazole-4-carboxamide] | 164 nM |
| CC(NC(=O)c1cn(CC(F)F)nn1)c1nnc(-c2ccccc2)s1 (single isomer, unassigned) [Example 251, 1-(2,2-difluoroethyl)-N-(1-(5-phenyl-1,3,4-thiadiazol-2-yl)ethyl)-1H-1,2,3-triazole-4-carboxamide] | 84 nM |
| O=C(NCc1nnc(-c2ccccc2)s1)c1cn(C2CCCCC2)nn1 [Example 95, 1-cyclohexyl-N-((5-phenyl-1,3,4-thiadiazol-2-yl)methyl)-1H-1,2,3-triazole-4-carboxamide] | 189 nM |
| O=C(NCc1nnc(-c2ccccc2)s1)c1cn(CC2(CO)COC2)nn1 [Example 185, 1-((3-(hydroxymethyl)oxetan-3-yl)methyl)-N-((5-phenyl-1,3,4-thiadiazol-2-yl)methyl)-1H-1,2,3-triazole-4-carboxamide] | 25 nM |
| O=C(NCc1nnc(-c2ccccc2)s1)c1cn(CC2CCCO2)nn1 (centres unmarked) [Example 79, N-((5-phenyl-1,3,4-thiadiazol-2-yl)methyl)-1-((tetrahydrofuran-2-yl)methyl)-1H-1,2,3-triazole-4-carboxamide] | 110 nM |
| Cc1cc(C(=O)NCc2nnc(-c3ccccc3)s2)on1 [Example 25, 3-methyl-N-[(5-phenyl-1,3,4-thiadiazol-2-yl)methyl]isoxazole-5-carboxamide] | 76 nM |
| O=C(NCc1nnc(-c2ccccc2)s1)c1cn(C2CC2(F)F)nn1 (single isomer, unassigned) [Example 131, 1-(2,2-difluorocyclopropyl)-N-((5-phenyl-1,3,4-thiadiazol-2-yl)methyl)-1H-1,2,3-triazole-4-carboxamide] | 54 nM |

| Structure (SMILES) | EC50 |
| --- | --- |
| COc1cc(C(=O)NCc2nnc(-c3ccccc3)s2)on1 [Example 58, 3-methoxy-N-[(5-phenyl-1,3,4-thiadiazol-2-yl)methyl]isoxazole-5-carboxamide] | 92 nM |
| O=C(NCc1nnc(-c2ccccc2)s1)c1cn(C(F)F)nn1 [Example 272, 1-(difluoromethyl)-N-((5-phenyl-1,3,4-thiadiazol-2-yl)methyl)-1H-1,2,3-triazole-4-carboxamide] | 12 nM |
| COCc1ccc(C(=O)NCc2nnc(-c3ccccc3)s2)o1 [Example 45, 5-(methoxymethyl)-N-[(5-phenyl-1,3,4-thiadiazol-2-yl)methyl]furan-2-carboxamide] | 552 nM |
| Cc1ccc(-n2cc(C(=O)NCc3nnc(C4CCCCC4)s3)nn2)c(C)n1 [Example 324, N-((5-cyclohexyl-1,3,4-thiadiazol-2-yl)methyl)-1-(2,6-dimethylpyridin-3-yl)-1H-1,2,3-triazole-4-carboxamide] | 274 nM |
| O=C(NCc1cc(-c2ccccc2)on1)c1cn(CC(F)(F)F)nn1 [Example 232, N-((5-phenylisoxazol-3-yl)methyl)-1-(2,2,2-trifluoroethyl)-1H-1,2,3-triazole-4-carboxamide] | 6 nM |
| O=C(NCc1nnc(-c2ccccc2)s1)c1cn(CC2(O)COC2)nn1 [Example 140, 1-((3-hydroxyoxetan-3-yl)methyl)-N-((5-phenyl-1,3,4-thiadiazol-2-yl)methyl)-1H-1,2,3-triazole-4-carboxamide] | 10 nM |
| Cc1cc(C(=O)NCc2nnc(-c3ccccc3)s2)c(C)o1 [Example 36, 2,5-dimethyl-N-[(5-phenyl-1,3,4-thiadiazol-2-yl)methyl]furan-3-carboxamide] | 487 nM |
| O=C(NCc1nnc(-c2ccccc2)s1)c1cn(C2COC2)nn1 [Example 67, 1-(oxetan-3-yl)-N-((5-phenyl-1,3,4-thiadiazol-2-yl)methyl)-1H-1,2,3-triazole-4-carboxamide] | 14 nM |
| C[C@@H]1C[C@H]1n1cc(C(=O)NCc2nnc(-c3ccccc3)s2)nn1 [Example 134, 1-((1R,2R)-2-methylcyclopropyl)-N-((5-phenyl-1,3,4-thiadiazol-2-yl)methyl)-1H-1,2,3-triazole-4-carboxamide] | 166 nM |
| CC(n1cc(C(=O)NCc2nnc(-c3ccccc3)s2)nn1)C(F)(F)F (centres unmarked) [Example 203, N-((5-phenyl-1,3,4-thiadiazol-2-yl)methyl)-1-(1,1,1-trifluoropropan-2-yl)-1H-1,2,3-triazole-4-carboxamide] | 31 nM |
| Cc1ccc(-n2cc(C(=O)NCc3ccc(-c4ccccc4)nn3)nn2)c(C)n1 [Example 261, 1-(2,6-dimethylpyridin-3-yl)-N-((6-phenylpyridazin-3-yl)methyl)-1H-1,2,3-triazole-4-carboxamide] | 25 nM |
| CC(C)(O)c1cc(C(=O)NCc2nnc(-c3ccccc3)s2)on1 [Example 328, 3-(2-hydroxypropan-2-yl)-N-((5-phenyl-1,3,4-thiadiazol-2-yl)methyl)isoxazole-5-carboxamide] | 306 nM |
| O=C(NCc1nnc(-c2ccccc2)s1)c1cn(C2(CO)COC2)nn1 [Example 158, 1-(3-(hydroxymethyl)oxetan-3-yl)-N-((5-phenyl-1,3,4-thiadiazol-2-yl)methyl)-1H-1,2,3-triazole-4-carboxamide] | 335 nM |
| C[C@H](O)[C@@H](C)n1cc(C(=O)NCc2nnc(-c3ccccc3)s2)nn1 [Example 169, 1-((2R,3S)-3-hydroxybutan-2-yl)-N-((5-phenyl-1,3,4-thiadiazol-2-yl)methyl)-1H-1,2,3-triazole-4-carboxamide] | 68 nM |
| Cc1csc(C(=O)NCc2nnc(-c3ccccc3)s2)c1Cl [Example 37, 3-chloro-4-methyl-N-[(5-phenyl-1,3,4-thiadiazol-2-yl)methyl]thiophene-2-carboxamide] | 12 nM |
| Cn1cc(C(=O)NCc2nnc(-c3ccc(O)cc3)s2)nn1 [Example 295, N-[[5-(4-hydroxyphenyl)-1,3,4-thiadiazol-2-yl]methyl]-1-methyl-triazole-4-carboxamide] | 81 nM |
| N#CCCCCn1cc(C(=O)NCc2nnc(-c3ccccc3)s2)nn1 [Example 90, 1-(4-cyanobutyl)-N-((5-phenyl-1,3,4-thiadiazol-2-yl)methyl)-1H-1,2,3-triazole-4-carboxamide] | 27 nM |
